According to PMC9905117, “Characterization of the metabolism of eupalinolide A and B by carboxylesterase and cytochrome P450 in human liver microsomes” (Frontiers in Pharmacology, 2023):

Tested on: Carboxylesterase
Test: Inhibition of EA or EB hydrolysis in HLMs by carboxylesterase inhibitor BNPP
Format: biochemical, human
Details: HLMs 0.5 g/L, no NADPH, 30 min
Procedure: To determine ideal BNPP concentration for inhibiting carboxylesterase activity in HLMs, an incubation system consisting of 100 mM phosphate buffer solution at pH 7.4, HLMs (0.5 g/L), MgCl2 (5 mM) and BNPP (0.5, 1, 1.5 and 2 mM) was prepared ([Zhuang et al., 2014]; [Wang Y. Q. et al., 2020]; [Zhang et al., 2022d]; [Jin et al., 2022]). The mixture was preincubated at 37°C for 5 min and the metabolic reaction was initiated by addition of EA or EB (at a final concentration of 10 μM). Positive control groups lacked BNPP while negative control groups contained deactivated HLMs. […] The above reaction was terminated by adding 200 µl of ice-cold stop solution at 30 min. Sample preparation and evaluation were as described in 2.2.1. All incubations were performed in triplicate. The percentage of EA or EB hydrolysis inhibition was calculated using the following Eq. 1: Inhibition%=1−∆substrate in the presence of chemical inhibitor/∆substrate in the absence of chemical inhibitor×100% (1)

## O=[N+]([O-])c1ccc(OP(=O)(O)Oc2ccc([N+](=O)[O-])cc2)cc1 [BNPP, bis(4-nitrophenyl) phosphoricacid]
BNPP 0.5 mM, EA 10 μM
  inhibitory percentage of EA hydrolysis: 87.38%
BNPP 2 mM, EB 10 μM
  inhibitory rate of EB hydrolysis: 86.11%
